# Laboratory results as given in ChEMBL document CHEMBL1201862, “PubChem BioAssay data set” (2004).
# The source made the active and inactive calls.
# Columns and labels:
# [1] = molecular target: T1, Microphthalmia-associated transcription factor (Homo sapiens, UniProt O75030); assay: TRPM1 promoter luciferase signal decrease, dose response, MITF inhibitor project, cell-based, SK-MEL-5, cherry-picked, set 3 (AID 493073); type: functional
# T1 sequence (O75030 whole entry): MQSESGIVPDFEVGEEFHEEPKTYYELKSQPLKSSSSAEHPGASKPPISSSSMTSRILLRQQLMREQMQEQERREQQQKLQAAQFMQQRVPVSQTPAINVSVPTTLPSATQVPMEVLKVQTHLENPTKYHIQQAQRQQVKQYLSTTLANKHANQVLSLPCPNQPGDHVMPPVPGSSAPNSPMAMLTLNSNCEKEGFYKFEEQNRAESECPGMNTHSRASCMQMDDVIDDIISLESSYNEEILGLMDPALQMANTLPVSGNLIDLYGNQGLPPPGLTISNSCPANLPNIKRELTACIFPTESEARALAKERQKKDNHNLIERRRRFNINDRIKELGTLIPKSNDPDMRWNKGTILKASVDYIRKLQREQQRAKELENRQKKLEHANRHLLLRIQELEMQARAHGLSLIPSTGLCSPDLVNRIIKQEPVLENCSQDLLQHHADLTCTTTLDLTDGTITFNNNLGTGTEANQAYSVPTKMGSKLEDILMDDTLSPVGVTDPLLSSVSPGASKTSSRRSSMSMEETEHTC
# [2] = growth suppression of beta-catenin-knockout colon cells, dose response, cell-based, HCT116, human colon tumor (AID 1045); type: functional;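 also: HCT116 colon tumor cells with beta catenin knocked out; cells exposed to compound for 60 hours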
# [3] = molecular target: Heat shock protein HSP 90-alpha (Homo sapiens, UniProt P07900); type: functional, organism-based
# [4] = growth suppression of PTEN-null colon cells, dose response, cell-based, HCT116 PTEN knockout (AID 1047); type: functional;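 also: HCT116 colon tumor cells with PTEN knocked out; cells exposed to compound for 60 hours before readout; potency for loss of cell viability measured by luminescence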
# [5] = molecular target: FAD-linked sulfhydryl oxidase ALR (Homo sapiens, UniProt P55789); assay: inhibitors of human ALR sulfhydryl oxidase, dose response, biochemical, H2O2 detection, luminescence, cherry-pick (AID 493248)
# Large T antigen = Large T antigen (Simian virus 40, UniProt P03070); type: functional, Betapolyomavirus macacae;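 also: Confirmatory-stage PubChem screen for compounds that inhibit SV40 T antigen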
# [6] = cytotoxicity toward NIH3T3 fibroblasts, dose response, counter-screen, cell-based, ATP luminescence, mouse fibroblasts (AID 2010); type: functional;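 also: cells exposed to compound for about 90 hours before reading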
# [7] = C. albicans growth with fluconazole, confirmation, fluorescence, retest (AID 2467); type: functional, cell-based
# [8] = NIH-3T3 fibroblast cytotoxicity, dose response, cytotoxicity control, cell-based, fluorescence, Alamar Blue, secondary assay (AID 2327); type: functional;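 also: NIH-3T3 mouse fibroblasts cultured with fluconazole at 8 µg/mL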
# [9] = inhibitors of intracellular T. cruzi replication, confirmation, NIH3T3 host cells, beta-gal luminescence (AID 2044); type: functional, cell-based;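 also: intracellular parasites grown in NIH/3T3 mouse fibroblasts as host cells; luminescent beta-galactosidase reporter signal from transgenic T. cruzi replicating inside host cells; inhibitors lower the luminescence signal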
# [10] = inhibitors of HIV Env-driven cell fusion, dose response, cherry-pick (AID 652057); type: functional, cell-based
# [11] = ZM109 Env clade C HIV-1 fusion inhibitors, dose response, HeLa effector, CEM target cells, luciferase, cherry-pick (AID 652058); type: functional, cell-based
# [12] = off-target signal loss in HeLa-CEM21 co-culture – HeLa F-luc CTL cells, cherry-picked, counter-screen for HIV-1 Env fusion inhibitor project, dose response (AID 652040); type: functional, cell-based;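 also: potency for signal decrease marking cytotoxic or nonspecific inhibition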
# [13] = inhibitors of clade B AD8 Env fusion, dose response, cell-based, cherry-pick (AID 652062); type: functional;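 also: luciferase signal from cell-cell fusion driven by HIV-1 clade B AD8 Env; potency is for inhibitors of fusion seen as a drop in luminescence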
# Nonstructural protein 1 = Nonstructural protein 1 (Influenza A virus, UniProt Q194T2); type: functional, Influenza A virus (A/California/07/2009(H1N1))
# Fatty acid synthase = Fatty acid synthase (Homo sapiens, UniProt P49327); assay: FAS thioesterase domain inhibitors, dose response, biochemical, kinetic fluorescence intensity (AID 624326); type: functional;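 also: rate of fluorescence rise from hydrolysis of a fluorogenic O-methyl fluorescein ester substrate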
# [14] = control 3'UTR Renilla luciferase suppression, dose response, counter-screen for Shn3 inhibitor project, cell-based, Clone20-Shn3RL, cherry-picked (AID 624133); type: functional
# Paired box protein Pax-8 = Paired box protein Pax-8 (Homo sapiens, UniProt Q06710); assay: inhibitors of PAX8-driven TPO luciferase reporter, dose response, RMG-I cells, cherry-pick (AID 687027); type: functional, cell-based;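 also: luciferase reporter driven by Pax8 target thyroperoxidase promoter measured by SteadyGlo luminescence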
# [15] = Shn3 3'UTR reporter inhibitors, dose response, cell-based, Clone20 osteoblasts, firefly luciferase, cherry-picked (AID 624132); type: functional;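 also: firefly luciferase luminescence from reporter carrying the Shn3 3'UTR in osteoblasts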
# [16] = molecular target: T2, Ubiquitin-conjugating enzyme E2 N (Homo sapiens, UniProt P61088); type: functional;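 also: Dose-response confirmation in a TR-FRET assay detecting UBC13-driven polyubiquitin chain formation, inhibition measured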
# T2 sequence (P61088 whole entry): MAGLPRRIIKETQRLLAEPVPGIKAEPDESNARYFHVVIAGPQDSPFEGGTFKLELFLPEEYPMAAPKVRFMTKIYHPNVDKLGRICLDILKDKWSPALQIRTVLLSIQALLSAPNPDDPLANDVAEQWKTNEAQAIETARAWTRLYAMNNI
# INS1 = assay: beta cell apoptosis inhibitors, cytokine rescue, dose response, luminescence, retest (AID 449756); type: functional, cell-based; details: Rattus norvegicus;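 also: cell death triggered by IL-1 beta plus TNF-alpha plus IFN-gamma mixture; protective hits raise ATP signal compared with cytokine alone wells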
# [17] = molecular target: T3, Heat shock factor protein 1 (Mus musculus, UniProt P38532); assay: HSF1 potentiators in luciferase reporter cells, confirmation, cell-based, NIH3T3, luminescence, dose retest (AID 435004); type: functional;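 also: stress induced by proteasome inhibitor MG132 added 30 min after compound; luciferase reporter driven by HSF1 response element in NIH3T3 cells; actives raise luminescence as potentiators of the MG132 stress response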
# T3 sequence (P38532 whole entry): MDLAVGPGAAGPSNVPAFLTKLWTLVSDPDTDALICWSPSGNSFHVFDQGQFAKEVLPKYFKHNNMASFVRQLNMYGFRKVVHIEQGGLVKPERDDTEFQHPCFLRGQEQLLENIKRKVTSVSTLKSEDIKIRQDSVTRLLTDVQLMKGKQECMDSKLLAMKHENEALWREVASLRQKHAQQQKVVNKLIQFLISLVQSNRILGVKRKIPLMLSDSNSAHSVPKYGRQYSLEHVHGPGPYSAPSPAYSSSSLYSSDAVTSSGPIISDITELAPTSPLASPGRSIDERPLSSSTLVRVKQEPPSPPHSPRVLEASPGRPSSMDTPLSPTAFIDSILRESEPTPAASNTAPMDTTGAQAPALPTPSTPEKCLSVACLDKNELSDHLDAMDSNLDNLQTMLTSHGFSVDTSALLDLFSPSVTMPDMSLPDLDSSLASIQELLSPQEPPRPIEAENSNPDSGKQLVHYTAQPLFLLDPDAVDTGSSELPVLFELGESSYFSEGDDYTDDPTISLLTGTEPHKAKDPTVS
# Sequence of FAD-linked sulfhydryl oxidase ALR (P55789 whole entry): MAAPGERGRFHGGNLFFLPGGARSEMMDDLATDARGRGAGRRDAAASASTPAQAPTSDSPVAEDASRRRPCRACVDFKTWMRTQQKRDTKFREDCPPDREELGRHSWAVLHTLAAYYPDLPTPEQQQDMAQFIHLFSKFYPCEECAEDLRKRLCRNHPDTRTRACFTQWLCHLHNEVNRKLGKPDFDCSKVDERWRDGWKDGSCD
# Sequence of Nonstructural protein 1 (Q194T2 whole entry, the tested form may be a part): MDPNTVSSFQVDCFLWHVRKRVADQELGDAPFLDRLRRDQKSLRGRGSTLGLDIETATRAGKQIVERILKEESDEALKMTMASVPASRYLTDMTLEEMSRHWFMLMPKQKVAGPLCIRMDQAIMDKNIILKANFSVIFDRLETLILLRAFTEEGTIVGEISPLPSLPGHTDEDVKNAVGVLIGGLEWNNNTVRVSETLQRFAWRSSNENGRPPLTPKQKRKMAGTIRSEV
# Sequence of Paired box protein Pax-8 (Q06710 whole entry): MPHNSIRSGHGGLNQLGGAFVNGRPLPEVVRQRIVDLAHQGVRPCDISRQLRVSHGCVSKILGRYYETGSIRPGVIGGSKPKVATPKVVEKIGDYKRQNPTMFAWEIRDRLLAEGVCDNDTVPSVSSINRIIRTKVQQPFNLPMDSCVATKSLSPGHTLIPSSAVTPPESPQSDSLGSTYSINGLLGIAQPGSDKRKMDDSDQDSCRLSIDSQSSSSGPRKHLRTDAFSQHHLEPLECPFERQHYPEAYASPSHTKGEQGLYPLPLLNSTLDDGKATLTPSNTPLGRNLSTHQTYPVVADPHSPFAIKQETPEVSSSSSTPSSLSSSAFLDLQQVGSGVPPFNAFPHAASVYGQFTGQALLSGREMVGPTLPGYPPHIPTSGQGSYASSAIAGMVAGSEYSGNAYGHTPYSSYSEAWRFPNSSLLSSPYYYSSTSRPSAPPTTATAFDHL
# Sequence of Fatty acid synthase (P49327 whole entry, the tested form may be a part): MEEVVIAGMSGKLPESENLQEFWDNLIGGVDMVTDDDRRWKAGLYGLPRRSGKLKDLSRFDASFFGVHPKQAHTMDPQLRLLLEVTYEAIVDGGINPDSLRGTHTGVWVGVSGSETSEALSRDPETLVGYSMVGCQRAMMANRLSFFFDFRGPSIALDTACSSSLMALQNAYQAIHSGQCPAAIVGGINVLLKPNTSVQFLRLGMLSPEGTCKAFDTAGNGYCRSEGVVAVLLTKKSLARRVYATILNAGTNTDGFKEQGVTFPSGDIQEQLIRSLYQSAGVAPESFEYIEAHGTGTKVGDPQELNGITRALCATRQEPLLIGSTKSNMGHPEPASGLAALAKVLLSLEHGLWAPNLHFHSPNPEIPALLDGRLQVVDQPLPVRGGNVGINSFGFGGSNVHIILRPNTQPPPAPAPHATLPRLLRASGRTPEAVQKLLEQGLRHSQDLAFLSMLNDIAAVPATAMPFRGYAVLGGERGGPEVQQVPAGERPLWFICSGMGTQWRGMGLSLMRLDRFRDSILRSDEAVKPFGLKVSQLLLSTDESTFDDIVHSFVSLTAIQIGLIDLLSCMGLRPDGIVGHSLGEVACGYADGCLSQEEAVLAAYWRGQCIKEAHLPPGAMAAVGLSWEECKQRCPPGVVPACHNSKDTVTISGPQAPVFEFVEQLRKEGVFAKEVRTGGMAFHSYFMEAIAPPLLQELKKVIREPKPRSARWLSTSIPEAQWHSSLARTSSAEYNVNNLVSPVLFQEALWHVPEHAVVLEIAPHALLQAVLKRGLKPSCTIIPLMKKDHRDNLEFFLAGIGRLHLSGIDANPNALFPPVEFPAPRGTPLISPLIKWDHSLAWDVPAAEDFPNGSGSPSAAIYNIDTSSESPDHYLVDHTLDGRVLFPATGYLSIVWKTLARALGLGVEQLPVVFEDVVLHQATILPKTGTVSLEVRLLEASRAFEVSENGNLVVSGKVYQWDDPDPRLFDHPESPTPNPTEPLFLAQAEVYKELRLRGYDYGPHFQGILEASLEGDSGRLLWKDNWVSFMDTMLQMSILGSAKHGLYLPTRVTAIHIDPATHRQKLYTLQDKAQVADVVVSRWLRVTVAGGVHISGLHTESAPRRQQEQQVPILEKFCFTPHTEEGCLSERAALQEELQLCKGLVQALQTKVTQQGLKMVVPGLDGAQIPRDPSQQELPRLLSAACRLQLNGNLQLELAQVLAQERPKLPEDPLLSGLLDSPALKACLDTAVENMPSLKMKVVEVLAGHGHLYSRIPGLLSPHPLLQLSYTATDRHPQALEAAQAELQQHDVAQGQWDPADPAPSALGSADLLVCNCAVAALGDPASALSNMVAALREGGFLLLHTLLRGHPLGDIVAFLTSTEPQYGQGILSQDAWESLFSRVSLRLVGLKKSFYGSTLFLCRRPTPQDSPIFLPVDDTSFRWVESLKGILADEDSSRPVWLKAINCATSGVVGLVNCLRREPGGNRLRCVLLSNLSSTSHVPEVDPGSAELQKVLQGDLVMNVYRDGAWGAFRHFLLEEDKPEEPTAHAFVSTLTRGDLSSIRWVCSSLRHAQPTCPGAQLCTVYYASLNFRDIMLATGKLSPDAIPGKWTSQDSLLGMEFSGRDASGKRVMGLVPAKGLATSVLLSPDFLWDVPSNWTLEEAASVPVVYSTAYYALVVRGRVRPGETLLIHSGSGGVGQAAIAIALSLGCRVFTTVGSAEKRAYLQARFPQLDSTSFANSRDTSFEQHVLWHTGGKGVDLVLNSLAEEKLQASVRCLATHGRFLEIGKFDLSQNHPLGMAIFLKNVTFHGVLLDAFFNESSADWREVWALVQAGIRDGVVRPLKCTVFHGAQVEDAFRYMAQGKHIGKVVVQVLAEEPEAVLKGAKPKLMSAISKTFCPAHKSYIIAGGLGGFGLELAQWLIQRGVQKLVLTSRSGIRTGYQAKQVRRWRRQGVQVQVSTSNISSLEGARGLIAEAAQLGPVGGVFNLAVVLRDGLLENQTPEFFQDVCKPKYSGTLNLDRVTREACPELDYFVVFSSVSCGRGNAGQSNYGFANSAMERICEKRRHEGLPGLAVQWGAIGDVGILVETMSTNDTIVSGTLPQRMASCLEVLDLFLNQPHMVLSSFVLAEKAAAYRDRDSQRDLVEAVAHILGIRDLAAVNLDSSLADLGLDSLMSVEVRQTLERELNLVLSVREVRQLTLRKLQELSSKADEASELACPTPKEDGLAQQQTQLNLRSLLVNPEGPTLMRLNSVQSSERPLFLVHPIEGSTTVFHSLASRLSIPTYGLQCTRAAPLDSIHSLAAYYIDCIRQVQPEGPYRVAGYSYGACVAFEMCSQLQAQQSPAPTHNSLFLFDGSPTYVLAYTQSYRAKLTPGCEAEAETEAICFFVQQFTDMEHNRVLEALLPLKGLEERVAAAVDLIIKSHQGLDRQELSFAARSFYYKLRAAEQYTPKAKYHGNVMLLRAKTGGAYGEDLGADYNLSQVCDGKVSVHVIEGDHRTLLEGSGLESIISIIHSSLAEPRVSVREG
# Sequence of Large T antigen (P03070 whole entry): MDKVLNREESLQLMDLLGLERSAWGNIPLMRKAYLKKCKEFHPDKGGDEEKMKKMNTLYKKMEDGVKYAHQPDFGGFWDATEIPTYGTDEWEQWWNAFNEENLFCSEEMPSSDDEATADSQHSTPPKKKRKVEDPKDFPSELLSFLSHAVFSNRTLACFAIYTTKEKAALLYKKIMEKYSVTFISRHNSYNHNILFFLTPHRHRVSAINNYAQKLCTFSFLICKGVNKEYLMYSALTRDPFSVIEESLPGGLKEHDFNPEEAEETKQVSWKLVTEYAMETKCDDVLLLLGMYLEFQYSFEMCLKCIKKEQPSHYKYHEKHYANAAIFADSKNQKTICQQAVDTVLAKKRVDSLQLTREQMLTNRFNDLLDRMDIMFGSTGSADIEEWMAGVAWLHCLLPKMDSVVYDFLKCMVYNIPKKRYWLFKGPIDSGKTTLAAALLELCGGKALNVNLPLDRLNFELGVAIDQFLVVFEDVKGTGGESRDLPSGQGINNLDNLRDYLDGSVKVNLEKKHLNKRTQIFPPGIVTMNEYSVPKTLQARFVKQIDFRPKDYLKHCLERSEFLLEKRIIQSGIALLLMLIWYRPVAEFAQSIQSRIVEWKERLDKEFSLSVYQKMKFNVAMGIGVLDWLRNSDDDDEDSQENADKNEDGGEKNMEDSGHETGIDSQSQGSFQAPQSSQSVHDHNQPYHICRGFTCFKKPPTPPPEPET
smiles,measurement,setting,value
COc1ccc(NC(=O)CCC(=O)N/N=C/c2ccc([N+](=O)[O-])s2)cc1,AC50,[1],7.62 µM (active)
same,EC50,[2],11.3 µM (active)
same,AC50,[3],2.7 µM (active)
same,EC50,[4],11.5 µM (active)
Cc1ccc(CN2CCSc3ccc(C(=O)NCCCN4CCN(C)CC4)cc32)cc1,AC50,[5],0.195 µM (active)
Cc1ccc(C)c(S(=O)(=O)Nc2ccc(O)cc2)c1,IC50,Large T antigen,11.1 µM (active)
O=C(Nc1nc(-c2ccccn2)cs1)c1cc2ccccc2o1,EC50,[6],9.05 µM (active)
same,EC50,[7],1.49 µM (active)
same,EC50,[8],20.5 µM (active)
same,AC50,[3],4.49 µM (active)
same,EC50,[9],1.46 µM (active)
CC(C)CCSc1nc(N)c(C#N)cc1C#N,AC50,[10],26.2 µM (active)
same,AC50,[11],32.3 µM (active)
same,EC50,[6],> 60 µM (not active)
same,AC50,[12],23.4 µM (active)
same,EC50,[9],0.542 µM (active)
same,AC50,[13],25.6 µM (active)
COc1ccc(C)cc1NC(=O)CSc1ccc(-c2ccccn2)nn1,IC50,Nonstructural protein 1,9.77 µM (active)
O=C(COc1ccccc1)Nc1nc(-c2ccc(S(=O)(=O)N3CCOCC3)cc2)cs1,IC50,Fatty acid synthase,0.489 µM (active)
COC(=O)C1=C(c2ccc(F)cc2OCc2ccccc2)C[C@@H]2CC[C@H]1N2C(=O)NC1Cc2ccccc2C1,AC50,[14],29.3 µM (active)
same,AC50,Paired box protein Pax-8,9.27 µM (active)
same,AC50,[15],8 µM (active)
CC(C(=O)NC1CCCC1)N(C(=O)c1snc(C(N)=O)c1N)c1ccc2c(c1)OCCO2 (stereo not drawn),IC50,[16],> 20 µM (inactive)
COC(=O)c1cc(=O)n(CCc2ccccc2F)/c(=N/c2ccc(F)c(Cl)c2)s1,AC50,INS1,8.13 µM (active)
Cc1nc(C)c(-c2csc(Nc3ccc(F)cc3)n2)s1,AC50,[5],0.185 µM (active)
COC(=O)c1ccc(N2CCc3ccccc32)c([N+](=O)[O-])c1,IC50,Nonstructural protein 1,24 µM (active)
COC(=O)c1ccccc1S(=O)(=O)N1CCC(C(=O)N2CCC2)CC1,IC50,[16],> 20 µM (inactive)
CN(CCCNC(=O)C1CCCN(S(=O)(=O)c2c[nH]cn2)C1)c1ccccc1 (stereo not drawn),AC50,[5],0.085 µM (active)
O=c1cccc2n1CC1CC2CN(c2nc(N3CCCCC3)nc(N3CCCCC3)n2)C1 (stereo not drawn),AC50,[10],1.69 µM (active)
same,EC50,[17],> 260 µM (inactive)
same,AC50,[11],1.58 µM (active)
same,AC50,[12],3.76 µM (active)
same,AC50,[13],6.73 µM (active)
